Experimental findings from patent publication US20260241021A1 (priority 2023, published 2026) are described below.

The target in one data set is cathepsin B (Homo sapiens, UniProt P07858). The data set can be described thus: Digestion and exatecan release of linker-payloads by cathepsin B cleavage (LC-UV). In kind it is in vitro ADME. The settings on record: 5 μg linker-payload, 10 μg/mL activated cathepsin B, 37° C., sampled for 24 hours. The protocol: This study was conducted to evaluate how the DCBO and BCN in the linker-payloads would affect drug release. The study also included the linker-payloads with the two-amino acid spacer “GG” in the digestion comparison. The study was evaluated by digesting the linker-payloads using cathepsin B and quantifying the released exatecan by LC-UV. To perform exatecan release test by cathepsin B cleavage, 5 μg of the linker-payloads were treated with 10 μg/mL of activated cathepsin B in digestion buffer for payload cleavage at 37° C. The reaction mixture was sampled every two hours for 24 hours, and the amounts of released exatecan and residual linker-payload were analyzed by LC-UV. A C18 column (Symmetry 5 μm, 2.1×150 mm Waters) was applied for this analysis. Samples were eluted with ACN/water gradient at a flow rate of 0.5 mL/min, and the chromatogram was monitored at 263 nm.

Data set [1] deals with SKBR-3 breast cancer cells. In words: Cytotoxicity of linker-payloads (CellTiter-Glo, six days). The format is cell-based, human. The settings on record: SKBR-3, six days. From the text:
Human SKBR-3 breast cancer cells (ATCC, HTB-30) were used in this study. […] The IC50 data for the different linker payloads were similar.

The subject of data set [2] is Capan-1 pancreatic cancer cells. The settings on record: Capan-1, 6 days. The procedure:
(§1) Tumor cells (2×10^3 cells/well) were seeded in 96 well plates and treated with ADCs for 6 days. CellTiter-Glo® Reagent (Cat. G7572, Promega) was prepared by adding CellTiter-Glo® Buffer into lyophilized CellTiter-Glo® Substrate. Reconstituted CellTiter-Glo® Reagent was added into the culture medium with cells at 1:1 ratio after treatment for 6 days. The plate was placed on an orbital shaker for 2 minutes to induce cell lysis and then incubated at room temperature for 10 minutes before recording the luminescent signals by Luminometer. The viability of each treated sample was compared to the non-treated control. The IC50 of each ADC was calculated by Prism.

Another data set concerns NCI-N87 gastric cells. The settings on record: NCI-N87, 6 days. The protocol:
as §1

Broadly, the IC50 is the concentration that gives 50% inhibition. Read a high IC50 as a need for much substance.

With `CC[C@@]1(O)C(=O)OCc2c1cc1n(c2=O)Cc2c-1nc1cc(F)c(C)c3c1c2[C@@H](NC(=O)OC(C(=O)NCCOCCOCCOCCOCCOCCOCCOCCOCCOCCOCCOCCOCCOCCOCCOCCOCCOCCOCCOCCOCCOCCOCCOCCOC)c1ccc(NC(=O)[C@H](C)NC(=O)[C@@H](NC(=O)CCC(=O)N2Cc4ccccc4C#Cc4ccccc42)C(C)C)cc1)CC3` (mixture of isomers) [DL-5, DBCO-VA-Hydra-PAB-PEG24-Exatecan], the “percentage of linker-payloads existed (% linker-payload) after cathepsin B cleavage reaction” value on cathepsin B is 75%. This compound also returned a 50% inhibitory concentration (IC50) in data set [1] (Homo sapiens, SK-BR-3, 144 h) of 0.243 µM.

For the compound `CC[C@@]1(O)C(=O)OCc2c1cc1n(c2=O)Cc2c-1nc1cc(F)c(C)c3c1c2[C@@H](NC(=O)OC(C(=O)NCCOCCOCCOCCOCCOCCOCCOCCOCCOCCOCCOCCOCCOCCOCCOCCOCCOCCOCCOCCOCCOCCOCCOCCOC)c1ccc(NC(=O)[C@H](C)NC(=O)[C@@H](NC(=O)OC[C@@H]2[C@@H]4CCC#CCC[C@@H]42)C(C)C)cc1)CC3` (mixture of isomers) [DL-6, BCN-VA-Hydra-PAB-PEG24-Exatecan], on cathepsin B, the “percentage of linker-payloads existed (% linker-payload) after cathepsin B cleavage reaction” value was determined as 14%. In data set [1] (Homo sapiens, SK-BR-3, 144 h), the concentration for half-maximal inhibition (IC50) turned out to be 0.221 µM.

On to `CC[C@@]1(O)C(=O)OCc2c1cc1n(c2=O)Cc2c-1nc1cc(F)c(C)c3c1c2[C@@H](NC(=O)OC(C(=O)NCCOCCOCCOCCOCCOCCOCCOCCOCCOCCOCCOCCOCCOCCOCCOCCOCCOCCOCCOCCOCCOCCOCCOCCOC)c1ccc(NC(=O)[C@H](C)NC(=O)[C@@H](NC(=O)CNC(=O)CNC(=O)CCC(=O)N2Cc4ccccc4C#Cc4ccccc42)C(C)C)cc1)CC3` (mixture of isomers) [DL-7, DBCO-GGVA-Hydra-PAB-PEG24-Exatecan], for which the “percentage of linker-payloads existed (% linker-payload) after cathepsin B cleavage reaction” value on cathepsin B is recorded as 66%. Further, the IC50 in data set [1] (Homo sapiens, SK-BR-3, 144 h) amounted to 0.0967 µM.

With “BCN-GGVA-Hydra-PAB-PEG24-Exatecan [DL-8]”, on cathepsin B, the “amount of released exatecan” value is on record as 52.6% and the “percentage of linker-payloads existed (% linker-payload) after cathepsin B cleavage reaction” value is 4%. In data set [1], the concentration for half-maximal inhibition (IC50) was 0.138 µM.

Turning to TX05-DBCO-PEG24-Exatecan ADC [ADC-4], the 50% inhibitory concentration (IC50) turned out to be 0.0718 µM in data set [2] and 0.00551 µM in the data set on NCI-N87 gastric cells.

TX05-MCCA-PEG24-Exatecan ADC [ADC-3]: the IC50 in data set [2] was found to be 0.0646 µM; in the data set with NCI-N87 gastric cells, 0.0029 µM.
